pKi: −log10 of the molar value.
Assays:
[1] = system: Mus musculus; experiment: Epileptogenic activity in mouse, icv; type: functional
[2] = Displacement of [3H]kainic acid from Kainate receptor in rat synaptic membrane; type: cell membranes
[3] = Displacement of [3H]AMPA from AMPA receptor in rat synaptic membrane; type: cell membranes

Structure (SMILES)	ED50 [1]	pKi [2]	pKi [3]
N[C@@H](C[C@]1(C(=O)O)C[C@H]2OC[C@@H](O)[C@@H](O)[C@H]2O1)C(=O)O [NEODYSIHERBAINE A]	16 pmol	7.28	6.82
N[C@@H](C[C@]1(C(=O)O)C[C@H]2O[C@H](CO)[C@@H](O)[C@@H](O)[C@H]2O1)C(=O)O [10-HYDROXY-METHYL-NEODYSIHERBAINE A]	110 pmol	6.10	6.82
CN[C@H]1[C@H]2O[C@@](C[C@H](N)C(=O)O)(C(=O)O)C[C@H]2OC[C@H]1O [DYSIHERBAINE]	13 pmol	7.59	6.82
